From patent US20240300923A1, “IRAK4 Inhibitors” (ASTRAZENECA AB, priority 2022, published 2024)

How the values were obtained:
IRAK4 [1] = target: T1, IRAK4 (Homo sapiens (Human), UniProt Q9NWZ3); test: IRAK4 phosphorylation cell assay (IL-1β-stimulated Karpas-299 cells); type: cell-based; conditions: IRAK4 auto-phosphorylation (pIRAK4 Thr345/Ser346) in IL-1β-stimulated Karpas-299 cells; geometric mean of at least 2 experiments
Description: IRAK4 Phosphorylation Cell Assay
The activation of IRAK4 by TLR or IL-1R ligands leads to IRAK4 auto-phosphorylation, which can be prevented by IRAK4 kinase inhibitors. The effect of IRAK4 inhibitor compounds on IRAK4 auto-phosphorylation was assessed in IL-1β-stimulated Karpas-299 cells as a measurement of cellular potency. Karpas-299 cells were cultured in RPMI 1640 (Gibco 61870-010) containing 10% FBS (Gibco #10270). Cells were plated at 2×10^4 cells per well in poly-D-lysine coated 384 well plates (Corning #356663) to which compounds had been added at various concentrations (10 point half log dose response with a final top concentration of 30 μM) using an Echo 655 (Labcyte Inc). Cells were centrifuged (250 g, 4 mins), incubated at 37° C. for 1 h, then stimulated with 22.7 ng/mL recombinant IL-1β (R&D Systems, #201-LB-025) at 37° C. for 10 mins, followed by fixation in 4% paraformaldehyde for 20 mins and permeabilization in ice-cold 70% MeOH in PBS for 30 mins. Cells were washed twice with phosphate-buffered saline (PBS) on a BlueWasher (BlueCatBio) then blocked with PBS containing 10% FBS for 20 mins. Blocking solution was removed with a BlueWasher and cells were stained with anti-pIRAK4 (Thr345/Ser346) (CST, #11927, 1:400) in blocking buffer with 0.05% Tween-20 for 1 h, then washed twice with PBS containing 0.05% Tween-20 on a BlueWasher, followed by staining with a Alexa 647-conjugated secondary anti-rabbit IgG antibody (CST, #4414, 1:2,000) and Hoechst 33342 (Sigma, 1:2,000) in blocking buffer with 0.05% Tween-20 for 30 mins. Finally, the cells were washed twice with PBS containing 0.05% Tween-20 and imaged on an ImageXpress Micro (Molecular Devices) with a 10× air objective using the appropriate filters. Images were analysed in Columbus (PerkinElmer) and the fluorescence intensity per cell from the secondary antibody was quantified. The quantified data were analysed in Genedata Screener 19 (Genedata AG). […] IC50 values are the geometric mean of at least 2 experiments.

human cKit kinase = human cKit kinase (Homo sapiens (Human), UniProt P10721); test: cKit enzyme assay (LANCE, Eurofins CEREP); type: biochemical; conditions: human recombinant enzyme, 50 μM ATP; geometric mean of at least n=2, * = single experiment
Description: Potency of IRAK4 Inhibitor Compounds in cKit Enzyme Assay
Evaluation of the effects of the IRAK4 inhibitor compounds on the activity of the human cKit kinase quantified by measuring the phosphorylation of the substrate Ulight-TK peptide using a human recombinant enzyme and the LANCE® detection method at Eurofins CEREP, catalog item 3070, SOP no 1C768: The test compound, reference compound or water (control) are mixed with the enzyme (0.38 ng) in a buffer containing 40 mM Hepes/Tris (pH 7.4), 0.8 mM EGTA/Tris, 8 mM MgCl2, 1.6 mM DTT and 0.008% Tween 20. Thereafter, the reaction is initiated by adding 100 nM of the substrate Ulight-TK peptide and 50 μM ATP, and the mixture is incubated for 30 min at room temperature. For control basal measurements, the enzyme is omitted from the reaction mixture. Following incubation, the reaction is stopped by adding 13 mM EDTA. After 5 min, the anti-phopho-PT66 antibody labeled with europium chelate is added. After 60 more min, the fluorescence transfer is measured at lex=337 nm, lem=620 nm and lem=665 nm using a microplate reader (Envision, Perkin Elmer). The enzyme activity is determined by dividing the signal measured at 665 nm by that measured at 620 nm (ratio). The results are expressed as a percent inhibition of the control enzyme activity. The standard inhibitory reference compound is staurosporine, which is tested in each experiment at several concentrations to obtain an inhibition curve from which its IC50 value is calculated.
Data presented are the geometric mean of at least n=2, or as denoted by an*are obtained from a single experiment. […] Kinase selectivity can be a key determinant of clinical utility as off target toxicity can be reduced or eliminated.

IRAK4 [2] = target: T1, IRAK4; test: IRAK4 enzyme assay (mass spectrometry readout); type: biochemical; conditions: human recombinant IRAK4 0.2 nM, 3 mM ATP; geometric mean of at least 2 experiments
Description: Potency of IRAK4 Inhibitor Compounds in IRAK4 Enzyme Assay
The inhibitory activity of compounds against IRAK4 were determined in an enzymatic assay using mass spectrometry readout. Ten point half-log compound concentration response curves, with a top concentration of 1 μM or 10 μM, were generated from 10 mM stocks of compound solubilized in DMSO using an Echo 655 (Labcyte Inc) and added to 384 well assay plates (Greiner #781280). To the assay plates, 10 μL of human recombinant IRAK4 protein (Life Technologies #PV4002) diluted to a final concentration of 0.2 nM in assay buffer (50 mM Tris-HCl pH 7.4, 10 mM MgCl, 5 mM glutathione, 0.01% BSA, 3 mM ATP) was added. The enzyme was incubated with the compounds at room temperature for 15 minutes before a peptide substrate ([…], Innovagen custom synthesis, 10 mM in DMSO) was added to each well to a final concentration of 10 μM using an Echo 655 (Labcyte Inc). After two hours at room temperature, the reaction was stopped with 65 μL of 0.4% formic acid (Merck #33015). The unphosphorylated and phosphorylated peptide were measured by LC-MS/MS on a Waters TQ-S mass spectrometer. Peaks were integrated using the TargetLynx software and the ratios between phosphorylated and unphosphorylated peptides were calculated. Curves were fitted and compound potencies determined in Genedata Screener 19 (Genedata AG). IC50 values are the geometric mean of at least 2 experiments.

human cKit kinase, sequence (P10721 26-976): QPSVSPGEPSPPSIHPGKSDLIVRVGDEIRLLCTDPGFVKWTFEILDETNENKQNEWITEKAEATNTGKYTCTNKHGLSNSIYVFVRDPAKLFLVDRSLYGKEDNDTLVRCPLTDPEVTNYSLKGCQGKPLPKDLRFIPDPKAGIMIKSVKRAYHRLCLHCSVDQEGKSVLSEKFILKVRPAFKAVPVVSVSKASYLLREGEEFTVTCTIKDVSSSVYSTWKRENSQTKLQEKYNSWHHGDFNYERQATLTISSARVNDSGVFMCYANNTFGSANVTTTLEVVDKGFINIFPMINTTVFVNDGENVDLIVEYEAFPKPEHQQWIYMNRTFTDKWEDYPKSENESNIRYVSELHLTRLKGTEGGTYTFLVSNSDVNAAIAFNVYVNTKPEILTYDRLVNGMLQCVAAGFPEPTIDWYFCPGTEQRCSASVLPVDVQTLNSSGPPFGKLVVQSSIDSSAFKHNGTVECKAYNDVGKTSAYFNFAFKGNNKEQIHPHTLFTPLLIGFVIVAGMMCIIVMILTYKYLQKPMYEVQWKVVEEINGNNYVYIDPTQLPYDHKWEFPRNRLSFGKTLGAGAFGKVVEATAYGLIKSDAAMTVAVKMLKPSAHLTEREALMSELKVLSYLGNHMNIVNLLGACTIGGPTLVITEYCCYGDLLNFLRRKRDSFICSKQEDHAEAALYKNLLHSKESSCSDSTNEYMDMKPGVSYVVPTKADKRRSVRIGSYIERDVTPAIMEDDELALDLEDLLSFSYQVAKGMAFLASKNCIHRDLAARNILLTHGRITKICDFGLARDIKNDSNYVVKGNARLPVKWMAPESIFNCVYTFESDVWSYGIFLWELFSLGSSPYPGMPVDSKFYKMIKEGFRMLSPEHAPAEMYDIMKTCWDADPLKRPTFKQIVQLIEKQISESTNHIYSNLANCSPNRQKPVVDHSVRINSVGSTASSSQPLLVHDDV
T1 sequence (Q9NWZ3 whole entry): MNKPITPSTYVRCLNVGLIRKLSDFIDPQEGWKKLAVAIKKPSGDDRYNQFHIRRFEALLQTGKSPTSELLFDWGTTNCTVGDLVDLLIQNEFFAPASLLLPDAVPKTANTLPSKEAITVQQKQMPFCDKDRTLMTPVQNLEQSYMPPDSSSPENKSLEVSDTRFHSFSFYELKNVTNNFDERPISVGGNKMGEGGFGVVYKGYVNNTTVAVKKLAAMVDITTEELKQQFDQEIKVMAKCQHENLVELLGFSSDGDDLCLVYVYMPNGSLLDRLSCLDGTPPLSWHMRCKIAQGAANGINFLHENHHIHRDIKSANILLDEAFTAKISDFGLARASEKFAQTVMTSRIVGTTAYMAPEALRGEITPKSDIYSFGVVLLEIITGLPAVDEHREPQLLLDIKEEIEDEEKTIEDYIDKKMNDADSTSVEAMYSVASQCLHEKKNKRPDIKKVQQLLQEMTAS

Row | SMILES | IC50 (IRAK4 [1]) | IC50 (human cKit kinase) | IC50 (IRAK4 [2])
1 | COc1cc2nn([C@H]3CC[C@H](n4ccnn4)CC3)cc2cc1C(=O)Nc1cccn(C)c1=O [Example 27, 2-((1r,4r)-4-(1H-1,2,3-Triazol-1-yl)cyclohexyl)-6-methoxy-N-(1-methyl-2-oxo-1,2-dihydropyridin-3-yl)-2H-indazole-5-carboxamide] | 39 nM | > 100000 nM | 1.5 nM
2 | COc1cc2nn([C@H]3CC[C@H](N4CCN(C)C4=O)CC3)cc2cc1C(=O)Nc1cccn(C)c1=O [Example 19, 6-Methoxy-N-(1-methyl-2-oxo-1,2-dihydropyridin-3-yl)-2-((1r,4r)-4-(3-methyl-2-oxoimidazolidin-1-yl)cyclohexyl)-2H-indazole-5-carboxamide] | 34 nM | 10600 nM | 0.9 nM
3 | COc1cc2nn([C@H]3CC[C@H](N4CCCC4=O)CC3)cc2cc1C(=O)Nc1cccn(C)c1=O [Example 18, 6-Methoxy-N-(1-methyl-2-oxo-1,2-dihydropyridin-3-yl)-2-((1r,4r)-4-(2-oxopyrrolidin-1-yl)cyclohexyl)-2H-indazole-5-carboxamide] | 32 nM | 2400 nM | 1 nM
4 | COc1cc2nn([C@H]3CC[C@H](n4cncn4)CC3)cc2cc1C(=O)Nc1cccn(C)c1=O [Example 26, 2-((1r,4r)-4-(1H-1,2,4-Triazol-1-yl)cyclohexyl)-6-methoxy-N-(1-methyl-2-oxo-1,2-dihydropyridin-3-yl)-2H-indazole-5-carboxamide] | 38 nM | > 100000 nM | 2.2 nM
5 | COc1cc2nn([C@H]3CC[C@H](N(C)C(=O)[C@@H](C)O)CC3)cc2cc1C(=O)Nc1cccn(-c2cn(C)nn2)c1=O [Example 16, 2-((1R,4r)-4-((R)-2-Hydroxy-N-methylpropanamido)cyclohexyl)-6-methoxy-N-(1-(1-methyl-1H-1,2,3-triazol-4-yl)-2-oxo-1,2-dihydropyridin-3-yl)-2H-indazole-5-carboxamide] | 33 nM | 1400 nM | 1 nM
6 | COc1cc2nn([C@H]3CC[C@H](N(C)C(=O)[C@@H](C)O)CC3)cc2cc1C(=O)Nc1cccn(CC#N)c1=O [Example 10, N-(1-(Cyanomethyl)-2-oxo-1,2-dihydropyridin-3-yl)-2-((1R,4r)-4-((R)-2-hydroxy-N-methylpropanamido)cyclohexyl)-6-methoxy-2H-indazole-5-carboxamide] | 37 nM | 2500 nM | 1.4 nM
7 | COc1cc2nn([C@H]3CC[C@H](N(C)C(=O)[C@@H](C)O)CC3)cc2cc1C(=O)Nc1cccn(-c2cnn(C)n2)c1=O [Example 17, 2-((1R,4r)-4-((R)-2-Hydroxy-N-methylpropanamido)cyclohexyl)-6-methoxy-N-(1-(2-methyl-2H-1,2,3-triazol-4-yl)-2-oxo-1,2-dihydropyridin-3-yl)-2H-indazole-5-carboxamide] | 34 nM | > 100000 nM | 1.1 nM

The next compounds have a lower IC50 (IRAK4 [1]) than those just listed; values first:

Row | IC50 (IRAK4 [1]) | IC50 (human cKit kinase) | IC50 (IRAK4 [2]) | SMILES
8 | 31 nM | 10600 nM | 0.5 nM | COc1cc2nn([C@H]3CC[C@H](n4ccnc4C(C)O)CC3)cc2cc1C(=O)Nc1cccn(C)c1=O (single isomer, unassigned) [Example 28, 2-((1r,4r)-4-(2-(1-hydroxyethyl)-1H-imidazol-1-yl)cyclohexyl)-6-methoxy-N-(1-methyl-2-oxo-1,2-dihydropyridin-3-yl)-2H-indazole-5-carboxamide]
9 | 19 nM | 8400 nM | 0.6 nM | COc1cc2nn([C@H]3CC[C@H](n4ccnc4C(C)O)CC3)cc2cc1C(=O)Nc1cccn(C)c1=O (single isomer, unassigned) [Example 29, 2-((1r,4r)-4-(2-(1-hydroxyethyl)-1H-imidazol-1-yl)cyclohexyl)-6-methoxy-N-(1-methyl-2-oxo-1,2-dihydropyridin-3-yl)-2H-indazole-5-carboxamide]
10 | 26 nM | 26200 nM | 0.5 nM | COc1cc2nn([C@H]3CC[C@H](n4ccccc4=O)CC3)cc2cc1C(=O)Nc1cccn(C)c1=O [Example 22, 6-Methoxy-N-(1-methyl-2-oxo-1,2-dihydropyridin-3-yl)-2-((1r,4r)-4-(2-oxopyridin-1(2H)-yl)cyclohexyl)-2H-indazole-5-carboxamide]
11 | 17 nM | 88100 nM | 1.2 nM | COc1cc2nn(C3CCC(c4cccnn4)CC3)cc2cc1C(=O)Nc1cccn(C)c1=O (single isomer, unassigned) [Example 24, 6-Methoxy-N-(1-methyl-2-oxo-1,2-dihydropyridin-3-yl)-2-(4-(pyridazin-3-yl)cyclohexyl)-2H-indazole-5-carboxamide]
12 | 24 nM | 58200 nM | 0.6 nM | COc1cc2nn([C@H]3CC[C@H](N(C)C(=O)[C@@H](C)O)CC3)cc2cc1C(=O)Nc1cccn(C2CC2)c1=O [Example 12, N-(1-Cyclopropyl-2-oxo-1,2-dihydropyridin-3-yl)-2-((1R,4r)-4-((R)-2-hydroxy-N-methylpropanamido)cyclohexyl)-6-methoxy-2H-indazole-5-carboxamide]
